Consider 14 compounds from paper PMC3038857, “Using Nuclear Receptor Activity to Stratify Hepatocarcinogens” (PLoS ONE, 2011).

Where two headings read alike, the source gives them in different places.

The test system of one series is CYP1A1. Description: CLZD_CYP1A1: Change in expression of CYP1A1 (primary human hepatocytes). Type of series: cell-based. The following applies: 24 hr. The method in brief: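 Chemicals are tested in human hepatocyte primary cultures over 0.004-40 µM (5 concentrations) for 6, 24 or 48 hr, and concentration- and time-dependent transcript changes are read by quantitative nuclease protection assay.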

The target of a further series is T1, CAR (NR1I3) (Homo sapiens, UniProt Q14994).
T1 sequence (Q14994 1-352): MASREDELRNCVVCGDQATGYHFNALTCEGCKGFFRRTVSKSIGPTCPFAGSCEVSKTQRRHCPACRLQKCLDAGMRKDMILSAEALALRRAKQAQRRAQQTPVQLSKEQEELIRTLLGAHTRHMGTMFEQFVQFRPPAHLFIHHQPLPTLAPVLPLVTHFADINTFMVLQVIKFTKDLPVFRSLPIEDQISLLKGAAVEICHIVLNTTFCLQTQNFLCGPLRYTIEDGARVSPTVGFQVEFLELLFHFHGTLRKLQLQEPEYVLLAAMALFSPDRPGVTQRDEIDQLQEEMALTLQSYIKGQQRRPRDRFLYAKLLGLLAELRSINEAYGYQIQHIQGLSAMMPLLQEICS
Description: ATG_PBREM_CIS: Factorial reporter gene assay (HepG2). Type of series: cell-based. Also noted: endogenous in cells; host or cells: HepG2; scale not given here. Summed up: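 Seven concentrations per chemical, three-fold dilutions down from the MTC, were tested in HepG2 hepatoma cells. Those cells carried a multiple reporter transcription unit library, read either as cis transcription-factor-site reporters or as a trans mammalian one-hybrid panel for nuclear receptors.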

A further series concerns the target T2, ERa (ESR1) (Homo sapiens, UniProt P03372).
T2 construct: expressed in transfected cells; host or cells: HEK293
Description: NCGC_ERalpha_Agonist: GAL4 BLAM Reporter gene assay: ERa. Type of series: cell-based. The following applies: agonist mode; scale not given, looks like -log10 of molar active concentration; 0 = no activity. The procedure: (§1) These assays measure binding constants and enzyme inhibition values for nuclear receptors. The targets include [drawing 67] , [drawing 68] , [drawing 69] , [drawing 70] , [drawing 71] , [drawing 72] , [drawing 73] , [drawing 74] , [drawing 75] and [drawing 76] . Each of the nuclear receptor targets was measured in agonist mode. Assays were run at the NIH Chemical Genomics Center (Rockville, MD).
(§2) Cell-based HTS Assays: These assays measuring binding constants and enzyme inhibition values for nuclear receptors. The targets include AR, ER, FXR, LXR, PPARα, PPARδ, PPARγ, RXRα, RXRβ and PXR. Each of the nuclear receptor targets was measured in both agonist and antagonist mode, but the antagonist data is still undergoing analysis due to possible interference between cytotoxicity and assay activity, so antagonist mode data were not used in the present analysis. Assays were run at the NIH Chemical Genomics Center (Rockville, MD) as part of the Tox21 collaboration. […] The R^2 was required to be ≥0.5. Values where only the highest concentration exceeded 50% activity were excluded to eliminate weak or false positives. Detailed description of the methods, data and analysis methods for this dataset will be presented in a separate publication.

The next series has as its system LXRa (NR1H2). The series is described as follows: NCGC_LXR_Agonist: GAL4 BLAM Reporter gene assay: LXRa. The class given is cell-based, human. The following applies: agonist mode. The procedure: as §1, §2
In another series the test system is AR (androgen receptor). The series is described as follows: NVS_NR_hAR: Human AR 3H-Methyltrienolone (cell-free HTS). The class given is binding. An excerpt: (§3) These are a collection of biochemical assays measuring binding constants and enzyme inhibition values. Chemicals were initially screened at a single concentration in duplicate wells at a concentration of 10 [drawing 63] M for cytochrome P-450 assays and 25 [drawing 64] M for all others. […] These assays were run by Caliper Life Sciences (Hanover, MD) under contract to EPA. Short assay descriptions are available at: http://www.caliperls.com/products/contract-research/in-vitro/.
(§4) Cell-free HTS Assays: A collection of biochemical assays measuring binding constants and enzyme inhibition values. […] These assays were run by Caliper Life Sciences (Hanover, MD) under contract to EPA. Short assay descriptions are available at http://www.caliperls.com/products/contract-research/in-vitro/. Values for all endpoints were imported into GeneData Screener (Basel, Switzerland) and normalised to solvent controls from the same plate as the tested compounds and expressed as percent of neutral control. Concentration-response curves were fit in GeneData Screener (Basel, Switzerland) Condeseo module using the Hill equation and AC50 values were determined. […] Detailed description of the methods, data and analysis methods for this dataset are described in a separate publication.

A further series addresses Human ER (ESR1) (Homo sapiens, UniProt P03372). Description: NVS_NR_hER: Human ER 3H-Estradiol (cell-free HTS). Type of series: binding. The following applies: scale not given, looks like -log10 of molar active concentration, 0 = no activity.
Excerpt: as §3, §4

Setting [1] is: scale not given, looks like -log10 of molar active concentration, 0 = no activity.
The mark [2] stands for this setting: HepG2, scale not given, looks like -log10 of molar active concentration, 0 = no activity.

Sequence of Human ER (ESR1) (P03372 whole entry): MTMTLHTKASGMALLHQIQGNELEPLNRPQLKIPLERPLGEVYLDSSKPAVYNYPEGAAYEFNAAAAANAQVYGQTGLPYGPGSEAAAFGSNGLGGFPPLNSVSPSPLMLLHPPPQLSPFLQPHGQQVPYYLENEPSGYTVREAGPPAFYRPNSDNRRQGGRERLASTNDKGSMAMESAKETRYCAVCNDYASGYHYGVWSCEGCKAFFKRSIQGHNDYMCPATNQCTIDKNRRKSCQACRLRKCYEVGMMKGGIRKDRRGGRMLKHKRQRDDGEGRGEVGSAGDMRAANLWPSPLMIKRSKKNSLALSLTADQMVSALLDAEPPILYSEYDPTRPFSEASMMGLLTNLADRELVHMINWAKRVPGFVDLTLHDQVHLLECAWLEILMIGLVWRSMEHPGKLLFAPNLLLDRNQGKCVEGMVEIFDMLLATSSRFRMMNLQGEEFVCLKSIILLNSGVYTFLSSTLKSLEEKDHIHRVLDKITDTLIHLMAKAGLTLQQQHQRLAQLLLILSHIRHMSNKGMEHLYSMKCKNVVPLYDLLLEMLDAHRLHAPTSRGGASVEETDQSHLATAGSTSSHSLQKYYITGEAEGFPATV
T2 sequence (P03372 whole entry): as above

In turn, `O=C1C2CC=CCC2C(=O)N1SC(Cl)(Cl)Cl` (centres unmarked) [r51] returned a CLZD_CYP1A1_24 in the series with CYP1A1 (setting [1]) of 0. On CAR (NR1I3) (setting [2]), this compound yielded an ATG_PBREM_CIS of 0. Also, at ERa (ESR1), the NCGC_ERalpha_Agonist was 0. Moreover, the NCGC_LXR_Agonist in the series on LXRa (NR1H2) (setting [1]) turned out to be 0. In the series on AR (androgen receptor) (setting [1]), this compound returned an NVS_NR_hAR of 0. The NVS_NR_hER at Human ER (ESR1) turned out to be 0.
In turn, `CNC(=O)Oc1cccc2ccccc12` [r52] registered an ATG_PBREM_CIS on CAR (NR1I3) (setting [2]) of 0. At ERa (ESR1), this compound came in with an NCGC_ERalpha_Agonist of 4.543. The compound further registered an NCGC_LXR_Agonist in the series on LXRa (NR1H2) (setting [1]) of 0. In addition, the NVS_NR_hAR in the series on AR (androgen receptor) (setting [1]) amounted to 0. This compound yielded an NVS_NR_hER on Human ER (ESR1) of 0.
Take `CC1=C(C(=O)Nc2ccccc2)SCCO1` [r53]: in the series on CYP1A1 (setting [1]), the CLZD_CYP1A1_24 came out at 4.822. In addition, at ERa (ESR1), the NCGC_ERalpha_Agonist is 0. The NCGC_LXR_Agonist in the series with LXRa (NR1H2) (setting [1]) is 0. In the series with AR (androgen receptor) (setting [1]), the NVS_NR_hAR is reported as 0. On Human ER (ESR1), this compound yielded an NVS_NR_hER of 0.
In the series with CYP1A1 (setting [1]), `COc1cc(Cl)c(OC)cc1Cl` [r57] gave a CLZD_CYP1A1_24 of 0. On ERa (ESR1), this compound showed an NCGC_ERalpha_Agonist of 0. The same compound came in with an NCGC_LXR_Agonist in the series with LXRa (NR1H2) (setting [1]) of 0. In the series on AR (androgen receptor) (setting [1]), this compound showed an NVS_NR_hAR of 0. At Human ER (ESR1), this compound showed an NVS_NR_hER of 0.
On to `CC(C)OC(=O)Nc1cccc(Cl)c1` [r59], for which the CLZD_CYP1A1_24 in the series with CYP1A1 (setting [1]) came out at 0. The compound further had an NCGC_ERalpha_Agonist on ERa (ESR1) of 0. In the series with LXRa (NR1H2) (setting [1]), this compound displayed an NCGC_LXR_Agonist of 0. In addition, the NVS_NR_hAR in the series on AR (androgen receptor) (setting [1]) is on record as 4.936. For the same compound, the NVS_NR_hER at Human ER (ESR1) was 0.
Regarding `Cc1ccccc1CO[C@@H]1C[C@@]2(C(C)C)CC[C@]1(C)O2` [r64], the CLZD_CYP1A1_24 with CYP1A1 (setting [1]) is listed as 0. Moreover, on CAR (NR1I3) (setting [2]), the ATG_PBREM_CIS came to 0. This compound gave an NCGC_LXR_Agonist in the series on LXRa (NR1H2) (setting [1]) of 0. This compound showed an NVS_NR_hAR in the series on AR (androgen receptor) (setting [1]) of 0.
In turn, `C#CCC1=C(C)[C@H](OC(=O)[C@H]2[C@H](C=C(C)C)C2(C)C)CC1=O` [r249] returned an ATG_PBREM_CIS on CAR (NR1I3) (HepG2) of 5.276. In the series on LXRa (NR1H2), this compound had an NCGC_LXR_Agonist of 4.777. This compound also came in with an NVS_NR_hAR in the series with AR (androgen receptor) of 4.991.
In the series with CYP1A1, `CCCN(CCC)c1c([N+](=O)[O-])cc(C(F)(F)F)c(N)c1[N+](=O)[O-]` [r252] came in with a CLZD_CYP1A1_24 of 5.053. Moreover, the ATG_PBREM_CIS on CAR (NR1I3) (HepG2) was 4.337.
In the case of `CSc1nc(NC(C)C)nc(NC(C)C)n1` [r256], in the series on CYP1A1, the CLZD_CYP1A1_24 amounted to 5.071.
The compound `CCCC1COC(Cn2cncn2)(c2ccc(Cl)cc2Cl)O1` (centres unmarked) [r262] yielded a CLZD_CYP1A1_24 in the series with CYP1A1 of 4.952. This compound also came in with an NVS_NR_hAR in the series with AR (androgen receptor) of 4.367.
In the case of `CCc1ccc(C(=O)NN(C(=O)c2cc(C)cc(C)c2)C(C)(C)C)cc1` [r290], the CLZD_CYP1A1_24 in the series with CYP1A1 is 5.222.
Regarding `CCc1nn(C)c(C(=O)NCc2ccc(C(C)(C)C)cc2)c1Cl` [r291], the CLZD_CYP1A1_24 in the series with CYP1A1 stood at 4.87. Besides, the ATG_PBREM_CIS on CAR (NR1I3) (HepG2 reporter) came to 5.745.
For the compound `CCN(CC)C(=O)C(C)Oc1cccc2ccccc12` (centres unmarked) [row 219], the CLZD_CYP1A1_24 in the series on CYP1A1 was found to be 4.557. The NVS_NR_hAR in the series with AR (androgen receptor) was determined as 5.12.
Turning to `CC(C)Oc1cc(-n2nc(C(C)(C)C)oc2=O)c(Cl)cc1Cl` [row 225], in the series with CYP1A1, the CLZD_CYP1A1_24 is reported as 4.998.
